In brackets after ≈: the same amount, converted by molar mass.
Columns and labels:
[1] = test system: primary fibroblast cells from an NPC patient (NPC1 mutant); assay: Intracellular cholesterol distribution by Filipin III staining; format: cell-based, human; settings: 1 mM, 72 h, NPC1 mutant primary fibroblasts
Description: We determined the effects of the CD derivatives on intracellular cholesterol accumulation in primary fibroblast cells derived from an NPC patient using Filipin III, a fluorescent compound that specifically binds to unesterified cholesterol. After treatment with the CD derivatives (1 mM) for 72 h, the cells were examined for the fluorescent intensity of Filipin III using a fluorescence microscope. […] Studies are underway to define the molecular mechanisms by which HPβCD and HPγCD alleviate the cholesterol-trafficking defect. Cells were incubated in medium containing CD derivatives at 1 mM for 72 h. Cells were washed three times with PBS and fixed with 3.7% paraformaldehyde for 30 min at room temperature. After washing with PBS, cells were stained with PBS containing Filipin III (12.5 μg/mL) for 30–45 min at room temperature in the dark. After washing with PBS and applying a mounting medium, cells were analyzed using a Nikon TE2000 widefield microscope (Nikon, Melville, NY, USA).

[2] = test system: isolated human erythrocytes; assay: In vitro hemolysis test using isolated human erythrocytes; format: cell-based
Description: Venous blood was taken from healthy volunteers and placed in plastic tubes containing sodium–citrate anti-coagulant. The cell fraction including erythrocytes was separated from the plasma components by centrifugation (2500× g, 10 min, 20 °C), washed three times with phosphate buffered saline (PBS) solution, and re-suspended in the same solution. The erythrocyte count was adjusted to 10^9 per mL under the control of a Laborscale cell analyzer (Medicor, Hungary). The test was performed in standard Eppendorf-type plastic tubes, where the incubation mixture consisted of 1.3 mL of reagent solution containing increasing concentrations of CDs dissolved in PBS, 0.05 mL of erythrocyte suspension containing 5 × 10^7 red blood cells, and 0.05 mL of 3% Na2CO3. After 10 min incubation at 37 °C, samples were mixed and centrifuged at 5000x g. The absorbance of the released hemoglobin in the supernatant was determined at 540 nm spectrophotometrically. As a reference, total (100%) hemolysis was obtained by replacing PBS with distilled water. CD-induced hemolysis was related to this reference value and expressed as percent hemolysis. All of the experiments included at least 10 different concentrations of the test materials in triplicate runs to allow the plotting of dose-effect curves from multi-point determinations, and to calculate EC50 values. In order to investigate the protective effect of plasma components, aliquots of PBS were replaced by 50 µL, 100 µL, and 200 µL of blood plasma in the incubation mixture. Plasma protein concentration was determined by the biuret method.

[3] = test system: whole blood (erythrocytes); assay: In vitro hemolysis test in whole blood samples; format: cell-based, human; settings: RBC count 1 × 10^9
Description: For these experiments, healthy volunteers with identical main blood groups [A, Rhesus blood factor D (Rh) positive] but differing in their plasma lipid contents were selected. Plasma and cellular blood components were separated from the freshly taken sodium-citrated blood by centrifugation (2500× g, 10 min, 4 °C). The sedimented composite cellular fraction (red and white blood cells, and platelets) was washed with PBS, then re-suspended either in their own original plasma or in the foreign plasma with the identical blood group, resulting in erythrocyte/plasma combinations of normal cholesterol/lipid levels or higher cholesterol/lipid levels. The erythrocyte count was adjusted to 4 × 10^9 per mL in the blood. In this case, hemolysis test mixtures contained 0.04 mL of test solution with increasing concentrations of methyl-β-CD, 0.25 mL of blood, and 0.01 mL of 3% Na2CO3. Incubation and subsequent centrifugation conditions were identical to the above. Aliquots of the supernatant were diluted using PBS (containing 3% Na2CO3), and their hemoglobin content was determined. Again, dose-effect curves were constructed from multi-point determinations of triplicate runs. The levels of cholesterol, high-density lipoprotein (HDL), and triglyceride in plasma were determined by the use of standard laboratory procedures.

HEK293T cells = assay: MTS cell viability assay (CellTiter 96 AQueous One) in HEK293T cells; format: cell-based, human; settings: 10 mM, 24 h
Description: (§1) The CD/lipid inclusion complexes were then tested for their ability to reduce the metabolic activity (or cell viability) in HEK293T cells and HeLa cells (Figure 4) using the CellTiter 96 AQueous One Solution Cell Proliferation Assay Kit (Promega). Cells were treated with 10 mM of the free RAMEB, cholesterol-loaded RAMEB, linoleic acid-loaded RAMEB, or β-sitosterol-loaded RAMEB. At 24 h after treatment, a cell viability assay was conducted, and the absorbance at 490 nm was measured to determine the levels of the reaction products that were generated in metabolically active cells. Triton X-100 (TX) was included as a positive control for cytotoxicity. […]
(§2) The effects of CD treatment on cell viability and cytotoxicity were determined using the CellTiter 96 AQueous One Solution Cell Proliferation Assay Kit (Promega) and LDH Cytotoxicity Assay Kit (Thermo Fisher Scientific), respectively. […] The absorbance of the plates was recorded at 490 nm with an xMark microplate absorbance spectrophotometer (Bio-Rad, Hercules, CA, USA). […] Extracellular LDH in the media can be quantified by a coupled enzymatic reaction in which LDH catalyzes the conversion of lactate to pyruvate via nicotinamide adenine dinucleotide (NAD^+) reduction to NADH. Diaphorase then uses NADH to reduce a tetrazolium salt (INT) to a red formazan product that can be measured at 490 nm. […]

HeLa cells = assay: MTS cell viability assay (CellTiter 96 AQueous One) in HeLa cells; format: cell-based, human; settings: 10 mM, 24 h
Description: as §1, §2

[4] = isolated human erythrocytes in PBS, no plasma
[5] = isolated human erythrocytes in PBS, plasma 50 μL
[6] = isolated human erythrocytes in PBS, plasma 100 μL
[7] = isolated human erythrocytes in PBS, plasma 200 μL

Row | Molecule | Effect on intracellular cholesterol accumulation (Filipin III fluorescence) [1] | Hemolytic EC50 [2, 4] [µg/mL] | Hemolytic EC50 [2, 5] [µg/mL] | Hemolytic EC50 [2, 6] [µg/mL] | Hemolytic EC50 [2, 7] [µg/mL] | also measured
1 | Hydroxypropyl-γ-cyclodextrin [HPγCD] | reduction in cholesterol accumulation | – | – | – | – | –
2 | COC[C@H]1O[C@@H]2O[C@H]3[C@H](OC)[C@@H](OC)[C@@H](O[C@H]4[C@H](OC)[C@@H](OC)[C@@H](O[C@H]5[C@H](OC)[C@@H](OC)[C@@H](O[C@H]6[C@H](OC)[C@@H](OC)[C@@H](O[C@H]7[C@H](OC)[C@@H](OC)[C@@H](O[C@H]8[C@H](OC)[C@@H](OC)[C@@H](O[C@H]1[C@H](OC)[C@H]2OC)O[C@@H]8COC)O[C@@H]7COC)O[C@@H]6COC)O[C@@H]5COC)O[C@@H]4COC)O[C@@H]3COC [TRIMEB, Heptakis (2,3,6-tri-O-methyl)-β-cyclodextrin] | – | 7300 ± 200 | 11300 ± 300 | 14700 ± 400 | 19000 ± 200 | –
3 | COC[C@H]1O[C@@H]2O[C@H]3[C@H](O)[C@@H](OC)[C@@H](O[C@H]4[C@H](O)[C@@H](OC)[C@@H](O[C@H]5[C@H](O)[C@@H](OC)[C@@H](O[C@H]6[C@H](O)[C@@H](OC)[C@@H](O[C@H]7[C@H](O)[C@@H](OC)[C@@H](O[C@H]8[C@H](O)[C@@H](OC)[C@@H](O[C@H]1[C@H](O)[C@H]2OC)O[C@@H]8COC)O[C@@H]7COC)O[C@@H]6COC)O[C@@H]5COC)O[C@@H]4COC)O[C@@H]3COC [DIMEB-95, Heptakis (2,6-di-O-methyl)-β-cyclodextrin] | – | 1200 ± 300 | 4700 ± 400 | 6500 ± 600 | 8800 ± 500 | –
4 | COC[C@H]1O[C@@H]2O[C@H]3[C@H](O)[C@@H](OC)[C@@H](O[C@H]4[C@H](O)[C@@H](OC)[C@@H](O[C@H]5[C@H](O)[C@@H](OC)[C@@H](O[C@H]6[C@H](O)[C@@H](OC)[C@@H](O[C@H]7[C@H](O)[C@@H](OC)[C@@H](O[C@H]8[C@H](O)[C@@H](OC)[C@@H](O[C@H]1[C@H](O)[C@H]2OC)O[C@@H]8COC)O[C@@H]7COC)O[C@@H]6COC)O[C@@H]5COC)O[C@@H]4COC)O[C@@H]3COC [DIMEB-50, Heptakis (2,6-di-O-methyl)-β-cyclodextrin] | – | 1200 ± 200 | 8500 ± 200 | 9400 ± 400 | 11900 ± 300 | EC50DIMEB (hemolytic potency) ([2]; 5 mg/mL BSA (Figure 2)): 1380 µg/mL (≈ 1040 µM); EC50DIMEB (hemolytic potency) ([2]; 10 mg/mL bovine serum albumin (BSA) (Figure 2)): 1530 µg/mL (≈ 1150 µM); EC50DIMEB (hemolytic potency) ([2]; 100-µL plasma resulting in 5 mg/mL protein concentration in the mixture (Figure 2)): 9380 µg/mL; EC50DIMEB (hemolytic potency) ([2]; 200-µL plasma resulting in 10 mg/mL protein concentration in the mixture (Figure 2)): 11960 µg/mL; Hemolytic EC50 ([2]; RBCs-washed, 200 μL plasma added, plasma CHO 0.76 mM, HDL 0.25 mM, TG 0.13 mM, RBC count 5 × 10^7): 12600 ± 200 µg/mL; Hemolytic EC50 ([2]; RBCs-washed, no plasma added, RBC count 5 × 10^7): 1320 ± 100 µg/mL; Hemolytic EC50 ([3]; plasma CHO 2.22 mM, HDL 1.13 mM, TG 0.48 mM): 18000 ± 200 µg/mL; Hemolytic EC50 ([3]; plasma CHO 4.38 mM, HDL 0.58 mM, TG 1.08 mM): 22400 ± 400 µg/mL
5 | Randomly methylated β-cyclodextrin [RAMEB] | – | 2300 ± 300 | 5200 ± 300 | 7000 ± 400 | 9700 ± 500 | Effect on cell viability (metabolic activity) (HEK293T cells): significant reduction in metabolic activity; Effect on cell viability (metabolic activity) (HeLa cells): significant reduction in metabolic activity
6 | CC(O)COC[C@H]1O[C@@H]2O[C@H]3[C@H](O)[C@@H](O)[C@@H](O[C@H]4[C@H](O)[C@@H](O)[C@@H](O[C@H]5[C@H](O)[C@@H](O)[C@@H](O[C@H]6[C@H](O)[C@@H](O)[C@@H](O[C@H]7[C@H](O)[C@@H](O)[C@@H](O[C@H]8[C@H](O)[C@@H](O)[C@@H](O[C@H]1[C@H](O)[C@H]2O)O[C@@H]8COCC(C)O)O[C@@H]7COCC(C)O)O[C@@H]6COCC(C)O)O[C@@H]5COCC(C)O)O[C@@H]4COCC(C)O)O[C@@H]3COCC(C)O (stereo partly drawn) [HPβCD, Hydroxypropyl-β-cyclodextrin] | reduction in cholesterol accumulation | – | – | – | – | –
